According to PubChem BioAssay (NCI):
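Where inhibition never reached the appropriate level, the endpoint shown equals the highest concentration tested. Otherwise, values were interpolated linearly from a five-concentration, 48-hour dose response in 96-well plates. Definition used: TGI = concentration required for complete inhibition of growth.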

Columns and labels:
Experiment in all cases: growth of human tumour cells (NCI), 48 h
MDA-MB-231 breast = system: MDA-MB-231 breast
OVCAR-8 ovarian = system: OVCAR-8 ovarian
SW-620 colon = system: SW-620 colon
CCRF-CEM leukemia = system: CCRF-CEM leukemia
CAKI-1 renal = system: CAKI-1 renal
NCI-H522 lung = system: NCI-H522 lung
HL-60(TB) leukemia = system: HL-60(TB) leukemia
NCI-H226 lung = system: NCI-H226 lung
OVCAR-5 ovarian = system: OVCAR-5 ovarian
RXF 393 renal = system: RXF 393 renal
OVCAR-3 ovarian = system: OVCAR-3 ovarian
ACHN renal = system: ACHN renal
EKVX NSCLC = system: EKVX NSCLC
SNB-75 CNS = system: SNB-75 CNS
MDA-N = system: MDA-N
HS 578T breast = system: HS 578T breast
HCT-15 colon = system: HCT-15 colon
OVCAR-4 ovarian = system: OVCAR-4 ovarian
HT29 colon = system: HT29 colon
SK-OV-3 ovarian = system: SK-OV-3 ovarian
HOP-62 NSCLC = system: HOP-62 NSCLC
MCF7 breast = system: MCF7 breast
SR leukemia = system: SR leukemia
SK-MEL-2 melanoma = system: SK-MEL-2 melanoma
UO-31 renal = system: UO-31 renal
HCT-116 colon = system: HCT-116 colon
U251 CNS = system: U251 CNS
SF-539 CNS = system: SF-539 CNS
KM12 colon = system: KM12 colon
DU-145 prostate = system: DU-145 prostate
SF-295 CNS = system: SF-295 CNS
NCI-H460 lung = system: NCI-H460 lung
HCC-2998 colon = system: HCC-2998 colon
MDA-MB-435 = system: MDA-MB-435
SK-MEL-28 melanoma = system: SK-MEL-28 melanoma
SK-MEL-5 melanoma = system: SK-MEL-5 melanoma
LOX IMVI melanoma = system: LOX IMVI melanoma
PC-3 prostate = system: PC-3 prostate
K-562 leukemia = system: K-562 leukemia
M14 melanoma = system: M14 melanoma
A498 renal = system: A498 renal
UACC-257 melanoma = system: UACC-257 melanoma
T-47D breast = system: T-47D breast
IGROV1 ovarian = system: IGROV1 ovarian
MOLT-4 leukemia = system: MOLT-4 leukemia
SF-268 CNS = system: SF-268 CNS
TK-10 renal = system: TK-10 renal
HOP-92 NSCLC = system: HOP-92 NSCLC
786-0 renal = system: 786-0 renal
RPMI-8226 leukemia = system: RPMI-8226 leukemia
NCI/ADR-RES ovarian = system: NCI/ADR-RES ovarian
NCI-H23 lung = system: NCI-H23 lung
UACC-62 melanoma = system: UACC-62 melanoma
SN12C renal = system: SN12C renal
A549 NSCLC = system: A549 NSCLC
MALME-3M melanoma = system: MALME-3M melanoma
COLO 205 colon = system: COLO 205 colon
SNB-19 CNS = system: SNB-19 CNS
BT-549 breast = system: BT-549 breast

## CCOc1cc(/C=C2\N=C(c3ccccc3)N(c3nc4ccccc4s3)C2=O)ccc1O
MDA-MB-231 breast
  TGI: > 100 µM
OVCAR-8 ovarian
  TGI: > 100 µM
SW-620 colon
  TGI: > 100 µM
CCRF-CEM leukemia
  TGI: > 100 µM
CAKI-1 renal
  TGI: > 100 µM
NCI-H522 lung
  TGI: 60 µM
HL-60(TB) leukemia
  TGI: 73.9 µM
NCI-H226 lung
  TGI: > 100 µM
OVCAR-5 ovarian
  TGI: > 100 µM
RXF 393 renal
  TGI: > 100 µM
OVCAR-3 ovarian
  TGI: > 100 µM
ACHN renal
  TGI: > 100 µM
EKVX NSCLC
  TGI: > 100 µM
SNB-75 CNS
  TGI: > 100 µM
MDA-N
  TGI: > 100 µM
HS 578T breast
  TGI: 85.6 µM
HCT-15 colon
  TGI: 82.5 µM
OVCAR-4 ovarian
  TGI: > 100 µM
HT29 colon
  TGI: > 100 µM
SK-OV-3 ovarian
  TGI: > 100 µM
HOP-62 NSCLC
  TGI: > 100 µM
MCF7 breast
  TGI: > 100 µM
SR leukemia
  TGI: > 100 µM
SK-MEL-2 melanoma
  TGI: 62.1 µM
UO-31 renal
  TGI: > 100 µM
HCT-116 colon
  TGI: > 100 µM
U251 CNS
  TGI: > 100 µM
SF-539 CNS
  TGI: > 100 µM
KM12 colon
  TGI: > 100 µM
DU-145 prostate
  TGI: > 100 µM
SF-295 CNS
  TGI: > 100 µM
NCI-H460 lung
  TGI: > 100 µM
HCC-2998 colon
  TGI: 97.3 µM
MDA-MB-435
  TGI: > 100 µM
SK-MEL-28 melanoma
  TGI: > 100 µM
SK-MEL-5 melanoma
  TGI: 41.4 µM
LOX IMVI melanoma
  TGI: > 100 µM
PC-3 prostate
  TGI: 79.4 µM
K-562 leukemia
  TGI: > 100 µM
M14 melanoma
  TGI: > 100 µM
A498 renal
  TGI: > 100 µM
UACC-257 melanoma
  TGI: > 100 µM
T-47D breast
  TGI: > 100 µM
IGROV1 ovarian
  TGI: > 100 µM
MOLT-4 leukemia
  TGI: 58.9 µM
SF-268 CNS
  TGI: > 100 µM
TK-10 renal
  TGI: > 100 µM
HOP-92 NSCLC
  TGI: > 100 µM
786-0 renal
  TGI: > 100 µM
RPMI-8226 leukemia
  TGI: 65.4 µM
NCI/ADR-RES ovarian
  TGI: 67.8 µM
NCI-H23 lung
  TGI: 77.8 µM

## O=C1CN(c2ccccc2)C(=O)CN1CCN1CC(=O)N(c2ccccc2)CC1=O
OVCAR-8 ovarian
  TGI: > 100 µM
SW-620 colon
  TGI: > 100 µM
UACC-62 melanoma
  TGI: > 100 µM
CAKI-1 renal
  TGI: > 100 µM
NCI-H522 lung
  TGI: > 100 µM
HL-60(TB) leukemia
  TGI: > 100 µM
OVCAR-5 ovarian
  TGI: > 100 µM
SN12C renal
  TGI: > 100 µM
RXF 393 renal
  TGI: > 100 µM
OVCAR-3 ovarian
  TGI: > 100 µM
ACHN renal
  TGI: > 100 µM
EKVX NSCLC
  TGI: > 100 µM
SNB-75 CNS
  TGI: > 100 µM
MDA-N
  TGI: > 100 µM
HS 578T breast
  TGI: > 100 µM
HCT-15 colon
  TGI: > 100 µM
A549 NSCLC
  TGI: > 100 µM
OVCAR-4 ovarian
  TGI: > 100 µM
HT29 colon
  TGI: > 100 µM
SK-OV-3 ovarian
  TGI: > 100 µM
HOP-62 NSCLC
  TGI: > 100 µM
MALME-3M melanoma
  TGI: > 100 µM
MCF7 breast
  TGI: > 100 µM
SR leukemia
  TGI: > 100 µM
COLO 205 colon
  TGI: > 100 µM
UO-31 renal
  TGI: > 100 µM
HCT-116 colon
  TGI: > 100 µM
U251 CNS
  TGI: > 100 µM
SF-539 CNS
  TGI: > 100 µM
KM12 colon
  TGI: > 100 µM
DU-145 prostate
  TGI: > 100 µM
SNB-19 CNS
  TGI: > 100 µM
SF-295 CNS
  TGI: > 100 µM
NCI-H460 lung
  TGI: > 100 µM
HCC-2998 colon
  TGI: > 100 µM
MDA-MB-435
  TGI: > 100 µM
SK-MEL-28 melanoma
  TGI: > 100 µM
SK-MEL-5 melanoma
  TGI: > 100 µM
PC-3 prostate
  TGI: > 100 µM
M14 melanoma
  TGI: > 100 µM
A498 renal
  TGI: > 100 µM
UACC-257 melanoma
  TGI: > 100 µM
IGROV1 ovarian
  TGI: > 100 µM
SF-268 CNS
  TGI: > 100 µM
TK-10 renal
  TGI: > 100 µM
HOP-92 NSCLC
  TGI: > 100 µM
786-0 renal
  TGI: > 100 µM
RPMI-8226 leukemia
  TGI: > 100 µM
NCI-H23 lung
  TGI: > 100 µM
BT-549 breast
  TGI: > 100 µM
